Experimental data as given in patent US5446147A (Trustees of the University of Pennsylvania, priority 1992, dated 1995).
“Also recorded” adds a separate entry of the source. One block for each compound: values may come before it.

Key:
[1] = target: T1, dopamine D2 receptor (Rat Striatal Membranes) (Rattus norvegicus, UniProt P61169); test: Competition for ^125 I-FIDA-2 binding to rat striatal membranes
T1 construct: Rat tissue homogenates were prepared as described previously; from tissue; host or cells: rat striatal membranes (tissue homogenate)
T1 sequence (P61169 whole entry): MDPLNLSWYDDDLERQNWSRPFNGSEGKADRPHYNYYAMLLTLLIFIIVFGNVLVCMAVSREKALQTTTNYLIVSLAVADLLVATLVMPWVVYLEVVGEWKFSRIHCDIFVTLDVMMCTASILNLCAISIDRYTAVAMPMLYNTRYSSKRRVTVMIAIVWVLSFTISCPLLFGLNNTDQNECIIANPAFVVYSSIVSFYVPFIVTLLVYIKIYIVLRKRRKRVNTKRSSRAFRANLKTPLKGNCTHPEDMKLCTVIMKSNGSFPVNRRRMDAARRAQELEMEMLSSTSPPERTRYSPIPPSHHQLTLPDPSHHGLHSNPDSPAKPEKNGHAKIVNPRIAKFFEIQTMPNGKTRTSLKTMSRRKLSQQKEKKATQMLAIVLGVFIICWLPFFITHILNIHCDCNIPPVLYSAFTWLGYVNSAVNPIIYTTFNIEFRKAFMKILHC
Procedure: (§1) Rat tissue homogenates were prepared as described previously. Murphy, R. A., et al., J. Med. Chem. 33, 171-178 (1990). The binding assays were performed by incubating 50 μL of tissue preparations containing 40-60 μg of protein with appropriate amounts of ^125 I-labeled ligand and competitors in a total volume of 0.2 mL of the assay buffer. After an incubation period of 15 min at 37° C. (with stirring), the samples were rapidly filtered in a cell harvester (Brandel M-24R) under vacuum through Whatman GF/B glass-fiber filters pretreated with […] protamine base and washed with 3×5 mL of cold (4° C.) 50 mM Tris-HCI buffer, pH 7.4. The nonspecific binding was obtained in the presence of 10 μM (+)butaclamol. The filters were counted in a γ counter (Beckman 5500) at an efficiency of 70%. Both Scatchard and competition experiments were analyzed with the iterative nonlinear least squares curve-fitting program LIGAND.

[2] = target: T1, dopamine D2 receptor (Rat Striatal Membranes); test: Competition for ^125 I-FIDA-1 binding to rat striatal membranes
Procedure: as §1

[3] = target: Dopamine D-2 Receptors; conditions: Table II, known dopamine D-2 receptor ligands; cited from earlier work
[4] = tested on: dopamine receptors (striatum); test: Regional brain distribution in rats (uptake ratio of region to cerebellum); assay type: in vivo, rat; conditions: iv
Procedure: (§2) Male Sprague-Dawley rats (225-300 g), which were allowed free access to food and water, were used for the vivo biodistribution study. While under halothane anesthesia, 0.2 mL of a saline solution containing [^125 I]FIDA 8 or 10 (8-10 μCi) was injected daily into the femoral vein of rats, and they were sacrificed at various time points postinjection by cardiac excision under halothane anesthesia. The organs of interest were removed and weighed and the radioactivity was counted with a Beckman gamma automatic counter (Model 4000). The percent dose per organ was calculated by a comparison of the tissue counts to suitably diluted aliquots of the injected material. Total activities of blood and muscle were calculated under the assumption that they were 7% and 40% of the total body weight, respectively.
Regional brain distribution in rats was obtained after an injection of [^125 I]FIDA 8 or 10. By dissecting, weighing, and counting samples from different brain regions (cortex, striatum, hippocampus, and cerebellum), the percent dose/gram of sample was calculated by comparing the sample counts with the count of the diluted initial dose. The uptake ratio of each region was obtained by dividing the percent dose/gram of each region by that to the cerebellum.

[5] = In vivo biodistribution in rats (organ uptake); set-up: species or system rat; conditions: iv; for liver uptake (in words): first 30 min
Procedure: as §2, with “While under halothane anesthesia, 0.2 mL of a saline solution containing [^125 I]FIDA 8 or 10 (8-10 μCi) was injected daily into the femoral vein of rats, and they were sacrificed at various time points postinjection by cardiac excision under halothane anesthesia.” left out

[6] = rat striatal membranes, 15 min at 37° C., nonspecific binding with 10 μM (+)butaclamol, read-out: Ki, inhibition constant on ^125 I-FIDA-2 binding

- Ki [1, 6]: 23.3 ± 2.2 nM
- Ki ([2]; rat striatal membranes, 15 min at 37° C., nonspecific binding with 10 μM (+)butaclamol, read-out: Ki, inhibition constant on ^125 I-FIDA-1 binding): 33.1 ± 1.5 nM
SMILES: COc1cccc(OC)c1OCCNCC1COc2ccccc2O1 (stereo not drawn) [WB 4101]

SMILES: CCN1CCC[C@H]1CNC(=O)c1cc(I)cc2c1OCC2 [IBF]
- Kd [3]: 0.106 nM

- ST/CB ratio ([4]; 2 min): 1.2
- ST/CB ratio ([4]; 120 min): 25.2
- liver clearance (in words) [5]: slower than it was for [^123 I]FIDA1
- liver uptake (in words) [5]: High initial uptake in the liver
- brain uptake ([5]; time not stated): 0.98 % dose/organ
SMILES: COc1cc([123I])cc(C(=O)NC[C@H]2CCCN2Cc2ccc(F)cc2)c1OC [[^123 I]FIDA2]
- brain uptake (in words) [5]: better brain uptake in rats than [^123 I]FIDA1; also recorded: higher brain uptake than [^123 I]FIDA1

SMILES: CCN1CCC[C@H]1CNC(=O)c1c(O)c(I)cc(OC)c1OC [Ioxipride]
- Kd [3]: 0.019 nM

SMILES: CCN1CCC[C@H]1CNC(=O)c1cc(I)cc(OC)c1OC [Epidepride]
- Kd [3]: 0.024 nM

SMILES: CCN1CCC[C@H]1CNC(=O)c1cc(CCCF)cc(OC)c1OC [Fluoropropyl-Epidepride]
- Kd [3]: 0.03 nM

- increase in target to nontarget ratio vs. time, hippocampus and cortex [4]: not observed
- retention in striatum (in words) [4]: prolonged retention
- striatum/cerebellum (ST/CB) ratio ([4]; 30 min): 8.26
- striatum/cerebellum (ST/CB) ratio ([4]; 60 min): 29.3
- striatum/cerebellum (ST/CB) ratio ([4]; printed 10 min): 60.7
- brain uptake (in words) [5]: moderate brain uptake
- liver clearance (in words) [5]: rapidly washed out at 1 h postinjection
- liver uptake (in words) [5]: remained high for the first 30 min
SMILES: CCN1CCC[C@H]1CNC(=O)c1cc([123I])cc(OC)c1OCCF [[^123 I]FIDA1]
- brain washout (in words) ([5]; 1 h after injection): a large portion of the radioactivity has washed out from the brain; also recorded: the radioactivity had washed out from the brain

SMILES: CCN1CCC[C@H]1CNC(=O)c1c(O)c(Cl)cc(Cl)c1OC [Raclopride]
- Kd [3]: 10 nM

SMILES: COC(=O)[C@@H]1[C@H]2C[C@H]3c4[nH]c5ccccc5c4CCN3C[C@@H]2CC[C@@H]1O [yohimbine]
- Ki [1, 6]: 505 ± 70 nM

SMILES: COc1cc(I)cc(C(=O)NC[C@H]2CCCN2Cc2ccc(F)cc2)c1OC [FIDA2, R(+)-2,3-dimethoxy-N-[(1-(4' -fluorobenzyl)-2-pyrrolidinyl)methyl]-5-iodobenzamide]
- binding specificity and selectivity (FIDA2 radioligand) ([1]; competition study with various types of receptor ligands): specifically binds to the dopamine D2 receptor with great selectivity

SMILES: CN1[C@@H]2CC[C@H]1C[C@@H](OC(=O)C(CO)c1ccccc1)C2 (stereo partly drawn) [atropine]
- Ki [1]: > 10000 nM
- Ki [2]: > 10000 nM

SMILES: CCN1CCC[C@H]1CNC(=O)c1c(OC)ccc(I)c1O [IBZM]
- Kd [3]: 0.426 nM
